Source: US8058243B2, “Method for treating a brain cancer with ifenprodil” (HSC Research and Development Limited Partnership, priority 2006, dated 2011)
Structures can show the parent of a compound that is named as a salt. Where two headings read alike, the source gives them in different places.

System: murine neural precursor cells (neurosphere cultures)
Experiment: HTS of LOPAC library against secondary neurosphere cultures, MTT proliferation assay at 3 μM, day 7 (z score, P value)
Type: cell-based, mouse
[1] = LOPAC primary screen, neurosphere MTT proliferation, 3 μM, day 7
[2] = yes/no: significantly inhibited neurosphere proliferation (P<0.01) in the primary screen
[3] = primary LOPAC screen, 3 μM, MTT, neurosphere proliferation
[4] = yes/no: significantly inhibited neurosphere proliferation in the primary screen
[5] = LOPAC library screen at 3 μM, secondary neurosphere cultures, MTT
[6] = LOPAC screen, neurosphere MTT proliferation, 3 μM, day 7
[7] = yes/no: significantly inhibited neurosphere proliferation (P<0.01) in primary screen
[8] = yes/no: significantly inhibited neurosphere proliferation in primary screen
[9] = LOPAC library screen, 3 μM, MTT, neurosphere cultures

CC(O)C(C)OC(=O)[C@@H]1C[C@@H]2c3cccc4c3c(cn4C(C)C)C[C@H]2N(C)C1.O=C(O)/C=C\C(=O)O (some centres unmarked) [LY-53,857 maleate]
Z Score: −0.3382 | Z score [1]: −0.338 | Activity [2]: no

Cn1ccc2cc3c(cc21)CCN3C(=O)Nc1cccnc1 [SB 206553 hydrochloride]
Z Score: −1.365 | Z score [3]: −1.365 | Activity [4]: no

CCCCCCCC/C=C\CCCCCCCC(=O)O [Oleic acid]
Z score [1]: −0.345 | Activity [2]: no

Br.Oc1cc2c(c(Cl)c1O)CCNCC2c1ccccc1 (centres unmarked) [(B1)-6-Chloro-PB hydrobromide]
Z Score: −2.267

N=C(N)N1CCc2ccccc2C1 [Debrisoquin sulfate]
Z Score [5]: −0.3034 | Z score [6]: −0.303 | Activity [7]: no

R(−)-2,10,11-Trihydroxyaporphine hybrobromide
Z Score: −3.309

CC(C)C[C@H](NP(=O)(O)O[C@@H]1O[C@@H](C)[C@H](O)[C@@H](O)[C@H]1O)C(=O)N[C@@H](Cc1c[nH]c2ccccc12)C(=O)O [Phosphoramidon disodium]
Z Score (168 h, 3 µM): −0.5097 | Z score (168 h, 3 µM): −0.510 | Activity [8]: no

NC(=O)N1c2ccccc2C=Cc2ccccc21 [Carbamazepine]
Z Score [9]: 1.114 | Z score [6]: 1.114 | Activity [7]: no

O=C(O)/C(=C/c1c(C(=O)O)[nH]c2cc(Cl)cc(Cl)c12)c1ccccc1 [MDL 105,519]
Activity: no | Z Score: 2.565 | Z score: 2.565

CN(C)c1ccc(/C=C2\C(=O)Nc3ccccc32)cc1 [SU 4312]
Z Score: 0.2692 | Z score [1]: 0.269 | Activity [8]: no

Br.C=CCN1CCc2cc(O)c(O)cc2C(c2ccccc2)C1 (racemic) [(±)-SKF 38393, N-allyl-, hydrobromide]
Activity: no | Z score [3]: −1.590

NN=C(N)N.NN=C(N)N.O=S(=O)(O)O [Aminoguanidine hemisulfate]
Activity: no | Z Score: −1.219 | Z score: −1.219

Oc1ccc2c3c1O[C@H]1[C@@H](O)CC[C@@]4(O)[C@@H](C2)N(CC2CCC2)CC[C@]314 [Nalbuphine hydrochloride]
Activity: no | Z Score: 0.07032 | Z score: 0.070

OC[C@H]1O[C@@H](n2cnc3c(N[C@H]4CC5CCC4C5)ncnc32)[C@H](O)[C@@H]1O (stereo partly drawn) [(S)-ENBA]
Z Score: 0.2078 | Z score [1]: 0.208 | Activity [7]: no

CCN1C(=O)C=CC1=O [N-Ethylmaleimide]
Z Score: −0.02816 | Z score [1]: −0.028 | Activity [7]: no

O=C(O)/C=C\C(=O)O.O=C(O)/C=C\C(=O)O.c1cc(CN2CCCCC2)cc(OCCCNc2nc3ccccc3s2)c1 [SKY 95282 dimaleate]
Z Score: 0.4241

CCCC(=O)NCCc1c2n(c3ccc(OC)cc13)Cc1ccccc1-2 [IIK7]
Z Score: −0.3544 | Z score [1]: −0.354 | Activity [7]: no

CCCCCCCCCCCCCCCC(=O)OC(CC(=O)O)C[N+](C)(C)C.[Cl-] (racemic) [Palmitoyl-DL-Camitine chloride]
Z score [1]: 0.200 | Activity [8]: no

N#C/C(=C\c1ccc(O)c(O)c1)C(=O)N1CCc2ccccc21 [Tyrphostin AG 528]
Z Score [5]: −0.1481 | Z score [3]: −0.148 | Activity [4]: no

CC(C)C(=O)c1c(C(C)C)nn2ccccc12 [Ibudilast]
Z Score [9]: 0.3787 | Z score [1]: 0.379

S=C(NC1CCCCC1)N1CCC(c2cnc[nH]2)CC1 [Thioperamide maleate]
Z Score [5]: −0.1537 | Z score [3]: −0.154 | Activity [4]: no

COc1ccccc1N1CCN(CCCNc2c(C)c(=O)n(C)c(=O)n2C)CC1 [Urapidil, 5-Methyl-]
Z Score [5]: −0.7831 | Z score [3]: −0.783 | Activity [4]: no

CN1[C@@H]2CC[C@H]1C[C@@H](OC(=O)C(CO)c1ccccc1)C2 (some centres unmarked) [Atropine sulfate]
Activity: no | Z Score: 1.244 | Z score: 1.244

CCC1(C2=NCCN2)Cc2ccccc2O1 (centres unmarked) [Efaroxan hydrochloride]
Z Score (LOPAC library screen, 3 μM, MTT, secondary neurosphere cultures, day 7): −2.338 | Z score [1]: −2.338 | Activity [2]: yes

Cc1ccc(S(=O)(=O)N[C@@H](Cc2ccccc2)C(=O)CCl)cc1
Z Score: 0.3367 | Z score [3]: 0.337 | Activity [4]: no

CCCn1c(=O)c2[nH]c(-c3ccc(OCC(=O)Nc4ccc(C#N)cc4)cc3)nc2n(CCC)c1=O [MRS 1754]
Z Score: 0.9268 | Z score [1]: 0.927 | Activity (yes = significantly inhibited neurosphere proliferation (P<0.01) in the primary screen): no

CCCCCCC(C(C)O)n1cnc2c(N)ncnc21.Cl (centres unmarked)
Z Score [5]: −0.7656 | Z score [1]: −0.766 | Activity [7]: no

(S)-Propranolol hydrochloride
Z Score [5]: −0.5346 | Z score [1]: −0.535 | Activity [8]: no
